US6284746A (Chinoin, Ltd., priority 1993, dated 2001)
In brackets after ≈: the same amount, converted by molar mass.

Assays:
[1] = Solubility of taxol with soluble anionic-β-cyclodextrin polymer CDPSI (Example 4); assay type: physicochemical
[2] = Solubilizing of taxol with HPBCD (Example 5); assay type: physicochemical
Source text: Taxol was solubilized and formulated with 2-hydroxypropylated β-cyclodextrin. (HPBCD).

[3] = cited from earlier work
[4] = background statement; cited from earlier work
physchem [5] = details: water
physchem [6] = details: 40% aqueous dimethyl-beta-cyclodextrin
Procedure: 11.6 mg of Taxol (Sigma Chemicals Co. USA) is treated in 10 ml of 40% aqueous heptakis-2,6-di-O-methylated β-cyclodextrin at room temperature for 30 minutes, until a solution of slight haze is obtained.

physchem [7] = details: pH 7.6
Procedure: Randomly methylated β-cyclodextrin (average degree of substitution=1.8) was dissolved in physiological buffered saline (pH 7.6) at different concentrations and these solutions were incubated with the taxol substrate for 12 hours at room temperature. Each sample contained taxol in 5 mg/ml initial concentration. The suspensions after equilibration were membrane filtered and assayed for dissolved taxol by HPLC.

physchem [8] = assay: physchem
Source text: The suspension was filtered and the dissolved taxol determined by HPLC.

[9] = 25° C., 12 hours

CC(=O)O[C@H]1C(=O)[C@@]2(C)[C@H]([C@H](OC(=O)c3ccccc3)[C@]3(O)C[C@H](OC(=O)[C@H](O)[C@@H](NC(=O)c4ccccc4)c4ccccc4)C(C)=C1C3(C)C)[C@]1(OC(C)=O)CO[C@@H]1C[C@@H]2O (relative stereo) [taxol, [2aR-[2aα, 4β; 4αβ,6β,9α(αR*,βS*),11α-12α,12aα, 12bα]]-β-(Benzoylamino)-α-hydroxybenzene-propanoic acid 6,12-b-bis (acetyloxy)-12-(benzoyloxy)-2a,3,4,4a, 5,6,9,10,11,12,12a,12b-dodecahydro-4,11-dihyroxy-4a,8,13,13-tetramethyl-5-oxo-7,11-methano-1H-cyclodeca[3,4]-benz-[1,2-b]oxet-9-yl ester]
solubility ([1]; 0% cdpsi, CDPSI 0%): 0.6 µg/mL (≈ 0.703 µM)
solubility ([1]; 1% cdpsi solution, CDPSI 1%): 1.8 µg/mL (≈ 2.11 µM)
solubility ([1]; 5% cdpsi solution, CDPSI 5%): 3.5 µg/mL (≈ 4.1 µM)
solubility ([1]; 10% cdpsi solution, CDPSI 10%): 10.6 µg/mL (≈ 12.4 µM)
solubility ([1]; 40% cdpsi solution, CDPSI 40%): 56.8 µg/mL (≈ 66.5 µM)
solubility ([2]; 0.5% hpbcd solution, HPBCD 0.5%): 1 µg/mL (≈ 1.17 µM)
solubility ([2]; 1% hpbcd solution, HPBCD 1%): 1.7 µg/mL (≈ 1.99 µM)
solubility ([2]; 5% hpbcd solution, HPBCD 5%): 6.8 µg/mL (≈ 7.96 µM)
solubility ([2]; 10% hpbcd solution, HPBCD 10%): 34.9 µg/mL (≈ 40.9 µM)
solubility ([2]; 40% hpbcd solution, HPBCD 40%): 100 µg/mL (≈ 118 µM)
solubility ([2]; HPBCD none): 0.6 µg/mL (≈ 0.703 µM)
stability of taxol ([3]; Bartoli et al., background): generally poor stability
sensitivity to light and pH ([3]; background statement): very sensitive to light and the pH
solubility of taxol ([3]; glycosyl- and maltosyl-β-cyclodextrins with ethanol and ethylacetate (Mikuni 1993)): 20 to 110 µg/mL
antitumor activity [4]: significant antitumor activity
products of decomposition, biological activity [4]: biologically inactive products are forming
solubility (physchem [5]): 0.55 to 0.59 µg/mL (≈ 0.644 to 0.691 µM)
solubility at 0.5 h (physchem [6]): 992 to 1000 µg/mL (≈ 1160 to 1170 µM)
solubility thermodynamic at 12 h (physchem [7]; 1% rameb in buffered saline): 4.4 µg/mL (≈ 5.15 µM)
solubility thermodynamic at 12 h (physchem [7]; 5% rameb in buffered saline): 42.5 µg/mL (≈ 49.8 µM)
solubility thermodynamic at 12 h (physchem [7]; 10% rameb in buffered saline): 232 µg/mL (≈ 271 µM)
solubility thermodynamic at 12 h (physchem [7]; 40% rameb in buffered saline): 860 µg/mL (≈ 1010 µM)
solubility thermodynamic at 12 h (physchem [7]; buffered saline): 0.6 µg/mL (≈ 0.703 µM)
solubility thermodynamic at 12 h (physchem [8]; 10% aqueous succinyl-methyl-β-cyclodextrin): 244 µg/mL (≈ 286 µM)
solubility thermodynamic at 12 h (physchem [8]; 40% succinyl-methyl-β-cyclodextrin solution): 993 µg/mL (≈ 1160 µM)

CC(=O)O[C@@]12CO[C@@H]1C[C@H](O)[C@@]1(C)C(=O)[C@H](O)C3=C(C)[C@@H](OC(=O)[C@H](O)[C@@H](NC(=O)OC(C)(C)C)c4ccccc4)C[C@@](O)([C@@H](OC(=O)c4ccccc4)[C@H]21)C3(C)C [Taxotere, butoxycarbonyl-10-deacetyl-N-debenzoyl taxol]
solubility enhancement relative to free taxol derivative in water [9]: 850 times
